Laboratory results reported in patent US10798946B2, “Method for managing flea beetles of the family chrysomelidae in Brassica crops” (BASF Agrochemical Products B.V., priority 2015, dated 2020).

Tested on: Psylliodes chrysocephala (PSYICH; rape flea beetle)
Experiment: Field trial: flea beetle attack on winter oilseed rape, counted as crop plants with eating damage
Type: in vivo
Method: A field trial to investigate methods for flea beetle management in Brassica crops was carried out under the regime of Good Experimental Practice (GEP) in Germany, federal state of Niedersachsen. The trial was set up in a 3 time replicated, one factorial randomized block design. The plot size was 45 m^2.
The winter oilseed rape (WOSR) variety used in the trial was the commercial hybrid “Edimax CL®” carrying a tolerance against imidazolinone herbicides. As trap plant Sinapis alba, variety “Ascot” was used.
All WOSR seeds had been commercially treated with the product Aatiram65®, containing the active ingredient Thiram (650 g/I), at a dose rate of […] seeds to protect the seed from emergence diseases.
Only the WOSR seeds for the respective plots had been treated with 160 ml/100 kg seeds with a flowable concentrate containing 8% of Bacillus amyloliquefaciens ssp. plantarum MBI600 as flea beetle repellant.
For the trap plants, no seed treatment was applied.
At the day of seeding, the trap plants were seeded first in the respective plots at a seed rate of 3.6 k/ha using a plot seeder. Afterwards, the plots with WOSR treated with Aatiram65® only were seeded, then WOSR treated on top with Bacillus amyloliquefaciens ssp. plantarum MBI600. Thus, any contamination/mixing of the different seeds and seed treatments was prevented. In both cases, a WOSR seeding rate of 50 seeds per m^2 was targeted.
In order to control any undesired vegetation besides the crop and the trap plants, the commercial broad spectrum herbicide Butisan Top® was applied at a dose rate of 2.0 I/ha pre-emergence of the crop and trap plants.
After the crop was mature enough to overcome flea beetle damage (2-4 true leaf stage (BBCH 12-14)), the plots were sprayed with Pulsar 40 (active ingredient Imazamox) at a dose rate of 0.875 I/ha.
The intensity of the flea beetle attack was evaluated 26 days after seeding (DAS) and 33 DAS by counting the number of crop plants with eating damage. On the first assessment, the crop plants were in 1-2 true leaf stage (BBCH 11-12), at the later assessment, the crop plants had developed to the 1-4 true leaf stage (BBCH 11-14).

In the case of “Bacillus amyloliquefaciens ssp. plantarum MBI600 [MBI 600]”, the “infestation / number of crop plants attacked by flea beetles (in words)” value (field trial, both days of assessment) is reported as “did not reduce the infestation”, the “plants with eating damage (26 DAS)” value (number of crop plants with eating damage, 26 days after seeding, WOSR Edimax CL, BBCH 11-12, MBI600 seed treatment 160 ml/100 kg seeds of 8% flowable concentrate) is reported as 34 and the “plants with eating damage (33 DAS)” value (number of crop plants with eating damage, 33 days after seeding, WOSR Edimax CL, BBCH 11-14, MBI600 seed treatment 160 ml/100 kg seeds of 8% flowable concentrate) is reported as 34. For the same substance, the “plants with eating damage (26 DAS), rel.” value (relative to treatment 1 (none) = 100, 26 days after seeding) was 103 and the “plants with eating damage (33 DAS), rel.” value (relative to treatment 1 (none) = 100, 33 days after seeding) was 91.
